According to patent US20250136722A1, “CYTOTOXICITY TARGETING CHIMERAS” (GLAXOSMITHKLINE INTELLECTUAL PROPERTY DEVELOPMENT LIMITED, priority 2021, published 2025):
Several values for one entry are separate records, joined by “and”; a condition that tells them apart may be missing. Equal values may be shown once. Where a name gives a salt, the structure may show the parent alone.

Target: T1, CHOK1 cells engineered to overexpress human CCR2 (Homo sapiens, UniProt P41597)
T1 construct: expressed in transfected cells; host or cells: CHOK1 cells
Assay: Antibody dependent cellular cytotoxicity (ADCC) reporter assay (Example 199)
Type: cell-based
Details: with anti-cotinine antibody SEQ ID NO: 11/12; CHOK1-human CCR2 target cells, Jurkat FcγRIIIa NFAT-luciferase reporter cells; 12-18 hours; read-out: ADCC Reporter Assay pEC50 (converted)
Summary of the method: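 CHOK1-hCCR2 target cells are co-incubated for 12–18 h with Jurkat FcγRIIIa/NFAT-luciferase reporter cells, ARM compound (1 pM–10 μM) and anti-cotinine antibody with a DE-mutant human IgG1 Fc (0.01–200 μg/mL). Luminescence is expressed as signal:background against no-compound wells; EC50 comes from nonlinear fit and is reported as pEC50, averaged across runs.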

Compound | EC50
CC(C)N(C)[C@@H]1CC[C@H](N2CC[C@H](Nc3ncnc4ccc(C(F)(F)F)cc34)C2=O)[C@H](NC(=O)C2CC=C(c3ccc(OCCCCCCNC(=O)[C@H]4CC(=O)N(C)[C@@H]4c4cccnc4)cc3)CC2)C1 (stereo partly drawn) [Example 158, (2S,3S)-N-(6-((4′-(((1R,2S,5R)-5-(Isopropyl(methyl)amino)-2-((S)-2-oxo-3-((6-(trifluoromethyl)quinazolin-4-yl)amino)pyrrolidin-1-yl)cyclohexyl)carbamoyl)-2′,3′,4′,5′-tetrahydro-[1,1′-biphenyl]-4-yl)oxy)hexyl)-1-methyl-5-oxo-2-(pyridin-3-yl)pyrrolidine-3-carboxamide] | 2.51 nM
CC(C)N(C)[C@@H]1CC[C@H](N2CC[C@H](Nc3ncnc4ccc(C(F)(F)F)cc34)C2=O)[C@H](NC(=O)CCCCCCCCC(=O)NCCOCCOCCNC(=O)[C@H]2CC(=O)N(C)[C@@H]2c2cccnc2)C1 [Example 159, N^1-((1R,2S,5R)-5-(isopropyl(methyl)amino)-2-((S)-2-oxo-3-((6-(trifluoromethyl)quinazolin-4-yl)amino)pyrrolidin-1-yl)cyclohexyl)-N^10-(2-(2-(2-((2S,3S)-1-methyl-5-oxo-2-(pyridin-3-yl)pyrrolidine-3-carboxamido)ethoxy)ethoxy)ethyl)decanediamide] | 2 nM
CC(C)N(C)[C@@H]1CC[C@H](N2CC[C@H](Nc3ncnc4ccc(C(F)(F)F)cc34)C2=O)[C@H](NC(=O)c2ccnc(CCCOCCOCCOCCOCCNC(=O)[C@H]3CC(=O)N(C)[C@@H]3c3cccnc3)c2)C1 [Example 160, N-((1R,2S,5R)-5-(Isopropyl(methyl)amino)-2-((S)-2-oxo-3-((6-(trifluoromethyl)quinazolin-4-yl)amino)pyrrolidin-1-yl)cyclohexyl)-2-(1-((2S,3S)-1-methyl-5-oxo-2-(pyridin-3-yl)pyrrolidin-3-yl)-1-oxo-5,8,11,14-tetraoxa-2-azaheptadecan-17-yl)isonicotinamide, 3Formic acid salt] | 2 nM
CC(C)N(C)[C@@H]1CC[C@H](N2CC[C@H](Nc3ncnc4ccc(C(F)(F)F)cc34)C2=O)[C@H](NC(=O)CCCCOCCCCCCCCOCCCCNC(=O)[C@H]2CC(=O)N(C)[C@@H]2c2cccnc2)C1 [Example 161, (2S,3S)-N-(4-((8-((5-(((1R,2S,5R)-5-(Isopropyl(methyl)amino)-2-((S)-2-oxo-3-((6-(trifluoromethyl)quinazolin-4-yl)amino)pyrrolidin-1-yl)cyclohexyl)amino)-5-oxopentyl)oxy)octyl)oxy)butyl)-1-methyl-5-oxo-2-(pyridin-3-yl)pyrrolidine-3-carboxamide] | 1.58 nM
CC(C)N(C)[C@@H]1CC[C@H](N2CC[C@H](Nc3ncnc4ccc(C(F)(F)F)cc34)C2=O)[C@H](NC(=O)C2CCN(c3cnc(NCCOCCOCCNC(=O)[C@H]4CC(=O)N(C)[C@@H]4c4cccnc4)cn3)CC2)C1 [Example 162, N-((1R,2S,5R)-5-(Isopropyl(methyl)amino)-2-((S)-2-oxo-3-((6-(trifluoromethyl)quinazolin-4-yl)amino)pyrrolidin-1-yl)cyclohexyl)-1-(5-((2-(2-(2-((2S,3S)-1-methyl-5-oxo-2-(pyridin-3-yl)pyrrolidine-3-carboxamido)ethoxy)ethoxy)ethyl)amino)pyrazin-2-yl)piperidine-4-carboxamide] | 1.58 nM
CC(C)N(C)[C@@H]1CC[C@H](N2CC[C@H](Nc3ncnc4ccc(C(F)(F)F)cc34)C2=O)[C@H](NC(=O)CCCCCCCCC(=O)NCCCCCCCCCCNC(=O)[C@H]2CC(=O)N(C)[C@@H]2c2cccnc2)C1 [Example 165, N^1-((1R,2S,5R)-5-(isopropyl(methyl)amino)-2-((S)-2-oxo-3-((6-(trifluoromethyl)quinazolin-4-yl)amino)pyrrolidin-1-yl)cyclohexyl)-N^10-(10-((2S,3S)-1-methyl-5-oxo-2-(pyridin-3-yl)pyrrolidine-3-carboxamido)decyl)decanediamide] | 1.26 nM
CC(C)N(C)[C@@H]1CC[C@H](N2CC[C@H](Nc3ncnc4ccc(C(F)(F)F)cc34)C2=O)[C@H](NC(=O)CCOCCC(=O)N2CCC3(CCC(C(=O)NCCNC(=O)[C@H]4CC(=O)N(C)[C@@H]4c4cccnc4)CC3)CC2)C1 [Example 167, 3-(3-(3-(((1R,2S,5R)-5-(Isopropyl(methyl)amino)-2-((S)-2-oxo-3-((6-(trifluoromethyl)quinazolin-4-yl)amino)pyrrolidin-1-yl)cyclohexyl)amino)-3-oxopropoxy)propanoyl)-N-(2-((2S,3S)-1-methyl-5-oxo-2-(pyridin-3-yl)pyrrolidine-3-carboxamido)ethyl)-3-azaspiro[5.5]undecane-9-carboxamide] | 1.26 nM
CC(C)N(C)[C@@H]1CC[C@H](N2CC[C@H](Nc3ncnc4ccc(C(F)(F)F)cc34)C2=O)[C@H](NC(=O)[C@H]2CC[C@@H](NC(=O)C3CCC4(CC3)CCN(CCNC(=O)[C@H]3CC(=O)N(C)[C@@H]3c3cccnc3)CC4)CC2)C1 [Example 170, N-((1S,4s)-4-(((1R,2S,5R)-5-(Isopropyl(methyl)amino)-2-((S)-2-oxo-3-((6-(trifluoromethyl)quinazolin-4-yl)amino)pyrrolidin-1-yl)cyclohexyl)carbamoyl)cyclohexyl)-3-(2-((2S,3S)-1-methyl-5-oxo-2-(pyridin-3-yl)pyrrolidine-3-carboxamido)ethyl)-3-azaspiro[5.5]undecane-9-carboxamide] | 1 nM
CC(C)N(C)[C@@H]1CC[C@H](N2CC[C@H](Nc3ncnc4ccc(C(F)(F)F)cc34)C2=O)[C@H](NC(=O)C2CCN(C3CCN(C(=O)CCOCCOCCNC(=O)[C@H]4CC(=O)N(C)[C@@H]4c4cccnc4)CC3)CC2)C1 [Example 172, N-((1R,2S,5R)-5-(Isopropyl(methyl)amino)-2-((S)-2-oxo-3-((6-(trifluoromethyl)quinazolin-4-yl)amino)pyrrolidin-1-yl)cyclohexyl)-1′-(3-(2-(2-((2S,3S)-1-methyl-5-oxo-2-(pyridin-3-yl)pyrrolidine-3-carboxamido)ethoxy)ethoxy)propanoyl)-[1,4′-bipiperidine]-4-carboxamide] | 0.794 nM
CC(C)N(C)[C@@H]1CC[C@H](N2CC[C@H](Nc3ncnc4ccc(C(F)(F)F)cc34)C2=O)[C@H](NC(=O)[C@H]2CC[C@@H](NC(=O)CCOCCOCCNC(=O)CCCNC(=O)[C@H]3CC(=O)N(C)[C@@H]3c3cccnc3)CC2)C1 [Example 176, (2S,3S)-N-(4-((2-(2-(3-(((1S,4s)-4-(((1R,2S,5R)-5-(Isopropyl(methyl)amino)-2-((S)-2-oxo-3-((6-(trifluoromethyl)quinazolin-4-yl)amino)pyrrolidin-1-yl)cyclohexyl)carbamoyl)cyclohexyl)amino)-3-oxopropoxy)ethoxy)ethyl)amino)-4-oxobutyl)-1-methyl-5-oxo-2-(pyridin-3-yl)pyrrolidine-3-carboxamide] | 0.794 nM and 0.398 nM
CC(C)N(CCOCCOCCC(=O)N[C@H]1CC[C@@H](C(=O)N[C@@H]2C[C@H](N(C)C(C)C)CC[C@@H]2N2CC[C@H](Nc3ncnc4ccc(C(F)(F)F)cc34)C2=O)CC1)C(=O)CCCNC(=O)[C@H]1CC(=O)N(C)[C@@H]1c1cccnc1 [Example 177] | 0.501 nM and 0.316 nM
